Assay results as given in patent US7285618B1, “Polypeptides having neutrophil stimulating activity” (Japan Tobacco Inc., priority 2000, dated 2007).
Read-outs that look alike come from different tables or passages of the source. Where a SMILES comes first, the peptide text is derived from it. Where no end group is shown, it is not given here. The star is where a group is joined. For = O=C*

Assays:
[1] = system: differentiated HL60 cells; assay: Intracellular Ca2+ concentration (fura-2), differentiated HL60 cells; assay type: cell-based, human; conditions: differentiated HL60 cells (+)
Protocol: (§1) The differentiated HL60 cells or undifferentiated HL60 cells were washed twice with a Hepes-Na solution (140 mM NaCl, 4 mM KCl, 1 mM NaH2PO4, 1 mM MgCl2, 1.25 mM CaCl2, 5 mM Hepes, 11 mM glucose, 0.2% BSA, pH 7.4). Then, Ca^2+ sensitive fluorescence reagent, fura-2/AM, was added to the cell suspension (4 ml: final concentration, 4 μM). The reaction mixture was then shaken gently at room temperature for 60 minutes, shielded from light in order to incorporate fura-2 into the HL60 cells. Subsequently, the cells were washed twice with a Hepes-Na solution and a cell suspension was prepared at a final cell density of 1.0×10^6 cells/ml. One milliliter of the cell suspension was put into reaction cuvettes and stimulated with various samples under stirring at 30° C. Ratios of fluorescence intensity at 500 nm (F) for an excitation wavelength at 340 nm to that at 380 nm were measured with a fluorimeter (CAF-100, Japan Spectroscopic Co., Ltd.) and [Ca^2+]i was calculated following the formula: [Ca^2+]i(nM)=K×{(F−Fmin)/(Fmax−F)}×A/B, wherein
(§2) Fmax: a ratio of fluorescence intensity at 500 nm for an excitation wavelength at 340 nm to that at 380 nm after all cells were solubilized with 0.1% Triton X-100;
(§3) Fmin: a ratio of fluorescence intensity at 500-nm for an excitation wavelength at 340 nm to that at 380 nm after the whole calcium was chelated with 4 mM EGTA;
(§4) A: fluorescence intensity at 500-nm for an excitation wavelength at 380 nm, when all the calcium was chelated with EGTA;
(§5) B: fluorescence intensity at 500-nm for an excitation wavelength at 380 nm, when all cells were solubilized with Triton X-100;
(§6) K: 224 (nM) (the dissociation constant of fura-2).

[2] = system: undifferentiated HL60 cells; assay: Intracellular Ca2+ concentration (fura-2), undifferentiated HL60 cells; assay type: cell-based, human
Protocol: as §1, §2, §3, §4, §5, §6

[3] = system: differentiated HL60 cells; assay type: cell-based, human; conditions: for activity of promoting β-HA secretion / activity for β-HA secretion compared with COSP-1 and fCyt b (1-15): differentiated HL60 cells; for activity of promoting β-HA secretion: Example 12; for activity for β-HA secretion compared with COSP-1 and fCyt b (1-15): human homologues; for β-HA secretion from differentiated HL60 cells (%/total): total = β-HA released with 0.05% Triton X-100
Protocol: a. Cultivation of HL60 Cells and Induction to the Differentiated Neutrophil-Like Cells For cultivation, heat-inactivated FCS (final concentration; 10%), streptomycin (final concentration; 100 mg/l), penicillin G (final concentration of 10^5 units/l) and RPMI-1640 culture solution containing 10 mM Hepes (pH 7.4) were used. Cells were cultivated at a cell density of 2×10^5-1.5×10^6 cells/ml in a plastic flask (80 cm^2, 260 ml, Nunc) at 37° C. under stationary conditions with a 5% of CO2 concentration and a 100% of humidity. […] c. […] Measuring β-HA Enzyme Activity The amount of β-HA secreted into the reaction supernatant was determined by measuring the absorbance at 415 nm of p-nitrophenol that was generated by an enzymatic reaction involving p-nitrophenyl N-acetyl-β-D-glucosaminide as a substrate. To be specific, 90 μl of the reaction supernatant was transferred to a 96-well Immuno plate (Nunc) and 60 μl of a substrate solution (10 mM p-nitrophenyl N-acetyl-β-D-glucosaminide/40 mM citrate, 70 mM Na2HPO4, pH 4.5) was added to initiate an enzymatic reaction. Following a 1-hr reaction at 37° C., 100 μl of a reaction quencher (400 mM glycine, pH 10.7) was added to stop the reaction and the absorbance at 415 nm was measured. As a control, cells were treated with Triton X-100 at a final concentration of 0.05% and the amount of β-HA in the supernatant was measured. As another control, the amount of β-HA secreted from cells upon stimulation with fMLP at a final concentration of 10 μM was measured.

[4] = system: undifferentiated HL60 cells; assay: Migration promoting activity (Chemotaxis Cells), undifferentiated HL60 cells; assay type: cell-based, human
Protocol: (§7) The migration promoting activity of each of the polypeptides of interest was measured using Chemotaxis Cells (Kurabo) as follows: The differentiated HL60 cells or undifferentiated HL60 cells were washed three times with ice-cooled HBHS and a cell suspension was prepared at a cell density of 4×10^6 cells/ml. The cell suspension was incubated at 37° C. for 10 minutes; thereafter, 500 μl of the cell suspension was transferred to Chemotaxis Cells (2×10^6 cells/Cell), which were put on a micro-well plate filled with pre-heated (37° C.) HBHS containing 1 ml of polypeptide and incubation was performed at 37° C. for 1 hour. Then, the Chemotaxis Cells were removed from the plate and the number of cells that had migrated in each well was counted.
(§8) Migration promoting activity was expressed by a chemotaxis index, or the number of cells that migrated upon stimulation was divided by the number of cells migrated without stimuli.
The activity of the human homologues of COSP-1 and fCyt b (1-15) for promoting β-HA secretion and migration promoting activities were measured following the methods described in Examples 4 and 5, respectively. […]

[5] = system: differentiated HL60 cells; assay: Migration promoting activity (Chemotaxis Cells), differentiated HL60 cells; assay type: cell-based, human; conditions: for activity for migration at the concentrations where β-HA secretion was observed / concentrations of migration activity relative to the concentration for β-HA secretion: Example 12
Protocol: as §7, §8
(§9) The activity of the human homologues of COSP-1 and fCyt b (1-15) for promoting β-HA secretion and migration promoting activities were measured following the methods described in Examples 4 and 5, respectively. The activity for β-HA secretion was expressed by the percentage for the maximum amount of secretion upon stimulation with 10 μM of fMLP, whereas the activity for migration was expressed by a chemotaxis index, i.e., the ratio of the number of stimulated migrating cells to that of unstimulated migrating cells.

[6] = system: undifferentiated HL60 cells; assay: β-HA secretion from undifferentiated HL60 cells (Example 12); assay type: cell-based, human; conditions: data not shown
Protocol: as §9

[7] = system: differentiated HL60 cells; assay: LDH leakage from HL60 cells; conditions: differentiated HL60 cells, Example 4
Protocol: (§10) The differentiated HL60 cells and human leukocyte cells were washed three times with ice-cooled 0.1% BSA containing Hepes buffered Hank's solution (HBHS; 10 mM Hepes, 136.9 mM NaCl, 5.4 mM KCl, 1.2 mM CaCl2, 0.44 mM KH2PO4, 0.49 mM MgCl2, 0.41 mM MgSO4, 0.34 mM Na2HPO4, 5.5 mM glucose, 4.2 mM NaHCO3, pH 7.4). A cell suspension was prepared for each cell type at 5.5×10^6 cells/ml. Cytochalasin B and DNase I were then added to each cell suspension at a final concentration of 5 μg/ml. Ninety μl of each cell suspension was then transferred to an ice-cooled tube (5.0×10^5 cells/tube) and incubated at 37° C. for 10 minute. To each tube, either one of the fractions of polypeptide (or extract) in solution (10 μl) was added and incubated at 37° C. for 10 minutes to stimulate the cells. Immediately after the treatment, 200 μl of ice-cooled reaction quenching buffer (25 mM Tris, 123 mM NaCl, 2.7 mM KCl, pH 7.4) was added to the cell suspensions to stop the stimulation. Thereafter, the tubes were spun down at 4° C. for 60 seconds to precipitate the cell pellets and the β-HA activity and the lactate dehydrogenase (LDH) activity in the supernatant were measured.
(§11) The amount of LDH secreted into the reaction mixture was determined by measuring the absorbance (340 nm) of NADH generated by reduction of that NAD involves dehydrogenation of lactate. Reaction was initiated by adding a 400 μl of a substrate-buffer solution (125 mM 2-amino-2-methyl-1-propanol, 125 mM lithium lactate, 6.25 mM NAD, pH 9.5) to a 100 μl of the reaction supernatant. Following a 1-hr incubation at 37° C., the mixture was quenched in ice water to stop the reaction and the absorbance at 340 nm was measured.
(§12) The LDH enzyme activity secreted in the reaction mixture was expressed as the percentage of the total enzyme activity in cells (%/total) which was the enzyme activity of LDH released upon disruption of the cells with 0.05% Triton X-100.

[8] = system: differentiated HL60 cells
Protocol: as §10, §11, §12

For `Nc1ncnc2c1ncn2[C@@H]1O[C@H](COP(=O)(O)OP(=O)(O)OP(=O)(O)O)[C@@H](O)[C@H]1O` [ATP], which “intracellular Ca2+ concentration” value [1] is on record?
Its value is “increased”.

What about the “intracellular Ca2+ concentration” value [2] of the same compound?
Its value is “increased”.

With “fMet-Thr-Pro-Met-Arg-Lys-Ile-Asn-Pro-Leu-Met-Lys-Leu-Ile-Asn (For-MTPMRKINPLMKLIN; listed as Homo sapiens) [Human fCyt b (1-15)]” as the compound, how does the “activity of promoting β-HA secretion” value [3] read?
The value was “showed the activity”.

And the “activity for β-HA secretion compared with COSP-1 and fCyt b (1-15)” value [3]?
The value was “comparable”.

And the “β-HA secretion from differentiated HL60 cells (%/total)” value [3]?
Its value is 65.9 %/total.

And the migration promoting activity [4]?
Its migration promoting activity is “not observed”.

And the “migration promoting (attracting) activity” value [5]?
Its value is “showed the activity”.

And the “activity for migration at the concentrations where β-HA secretion was observed” value [5]?
Its value is “desensitized”.

And the “concentrations of migration activity relative to the concentration for β-HA secretion” value [5]?
The value was “observed at concentrations lower”.

And the “activity of promoting β-HA secretion” value [6]?
Its value is “not observed”.

MTNIRKSHPLMKIIN [Cyt b (1-15)] was tested. Which “LDH leakage out of the cells” value [7] did it give?
The value was “no LDH was found to leak out”.

`CC[C@H](C)[C@H](NC(=O)[C@H](CC(N)=O)NC(=O)[C@@H](NC(=O)[C@H](CCSC)NC=O)[C@@H](C)O)C(=O)N[C@@H](CCCNC(=N)N)C(=O)N[C@@H](CCCCN)C(=O)N[C@@H](CO)C(=O)N[C@@H](Cc1cnc[nH]1)C(=O)N1CCC[C@H]1C(=O)N[C@@H](CC(C)C)C(=O)N[C@@H](CCSC)C(=O)N[C@@H](CCCCN)C(=O)N[C@H](C(=O)N[C@H](C(=O)N[C@@H](CC(N)=O)C(=O)O)[C@@H](C)CC)[C@@H](C)CC` [fCyt b (1-15), fMet-Thr-Asn-Ile-Arg-Lys-Ser-His-Pro-Leu-Met-Lys-Ile-Ile-Asn] (For-MTNIRKSHPLMKIIN-OH) was tested. Which “LDH leakage out of the cells” value [8] did it give?
Its value is “no LDH was found to leak out”.

Which EC50 [3] does the source give for `CC[C@H](C)[C@H](NC(=O)[C@H](CC(N)=O)NC(=O)[C@@H](NC(=O)[C@H](CCSC)NC=O)[C@@H](C)O)C(=O)N[C@@H](CCCNC(=N)N)C(=O)N[C@@H](CCCCN)C(=O)N[C@@H](CO)C(=O)N[C@@H](Cc1c[nH]cn1)C(=O)N1CCC[C@H]1C(=O)N[C@@H](CC(C)C)C(=O)N[C@@H](CCSC)C(=O)N[C@@H](CCCCN)C(=O)N[C@H](C(=O)N[C@H](C(=O)N[C@@H](CC(N)=O)C(=O)O)[C@@H](C)CC)[C@@H](C)CC` [fCyt b (1-15), fMet-Thr-Asn-Ile-Arg-Lys-Ser-His-Pro-Leu-Met-Lys-Ile-Ile-Asn] (For-MTNIRKSHPLMKIIN-OH) here?
Its EC50 is 0.038 ± 0.0034 µM.

Which “activity of promoting β-HA secretion” value [3] does the source give for VTFLLPAGWILSHLETYRRPE [Human COSP-1] here?
Its value is “showed the activity”.

What about the “activity for β-HA secretion compared with COSP-1 and fCyt b (1-15)” value [3] of the same compound?
The value was “comparable”.

What about the “β-HA secretion from differentiated HL60 cells (%/total)” value [3] of the same compound?
Its value is 53.5 %/total.

What about the migration promoting activity [4] of the same compound?
Its migration promoting activity is “not observed”.

What about the “migration promoting (attracting) activity” value [5] of the same compound?
Its value is “showed the activity”.

And the “activity for migration at the concentrations where β-HA secretion was observed” value [5]?
The value was “desensitized”.

What about the “concentrations of migration activity relative to the concentration for β-HA secretion” value [5] of the same compound?
The value was “observed at concentrations lower”.

What about the “activity of promoting β-HA secretion” value [6] of the same compound?
Its value is “not observed”.
